Source: patent US20180002319A1, “MACROCYCLIC PICOLINAMIDE COMPOUNDS WITH FUNGICIDAL ACTIVITY” (DOW AGROSCIENCES LLC, priority 2014, published 2018)
Where two headings read alike, the source gives them in different places.

Assays:
[1] = system: Puccinia triticina; test: Wheat Brown Rust (PUCCRT) fungicidal activity; format: in vivo; conditions: for pest or weed control at 121.5 g/ha: Low Volume application, 121.5 g/H; for pest or weed control at 100 ppm: High Volume application
Method: (§1) Technical grades of materials were dissolved in acetone, which were then mixed with nine volumes of H2O containing 110 ppm Triton X-100. The fungicide solutions were applied onto wheat seedlings using an automated booth sprayer to run-off. All sprayed plants were allowed to air dry prior to further handling. All fungicides were evaluated using the aforementioned method for their activity vs. all target diseases, unless stated otherwise. Wheat leaf blotch and brown rust activity were also evaluated using track spray applications, in which case the fungicides were formulated as EC formulations, containing 0.1% Trycol 5941 in the spray solutions. Wheat plants (variety Yuma) were grown from seed in a greenhouse in 50% mineral soil/50% soil-less Metro mix until the first leaf was fully emerged, with 7-10 seedlings per pot. These plants were inoculated with an aqueous spore suspension of Zymoseptoria tritici either prior to or after fungicide treatments. After inoculation the plants were kept in 100% relative humidity (one day in a dark dew chamber followed by two to three days in a lighted dew chamber at 20° C.) to permit spores to germinate and infect the leaf. The plants were then transferred to a greenhouse set at 20° C. for disease to develop. When disease symptoms were fully expressed on the 1st leaves of untreated plants, infection levels were assessed on a scale of 0 to 100 percent disease severity. Percent disease control was calculated using the ratio of disease severity on treated plants relative to untreated plants. Example B: Evaluation of Fungicidal Activity: Wheat Brown Rust (Puccinia triticina; Bayer Code PUCCRT) Wheat plants (variety Yuma) were grown from seed in a greenhouse in 50% mineral soil/50% soil-less Metro mix until the first leaf was fully emerged, with 7-10 seedlings per pot. These plants were inoculated with an aqueous spore suspension of Puccinia triticina either prior to or after fungicide treatments. After inoculation the plants were kept in a dark dew room at 22° C. with 100% relative humidity overnight to permit spores to germinate and infect the leaf. The plants were then transferred to a greenhouse set at 24° C. for disease to develop. Fungicide formulation, application and disease assessment followed the procedures as described in the Example A.

[2] = system: Zymoseptoria tritici; test: Leaf Blotch of Wheat (SEPTTR) fungicidal activity; format: in vivo; conditions: wheat leaf blotch; for pest or weed control at 121.5 g/ha: Low Volume application, 121.5 g/H; for pest or weed control at 100 ppm: High Volume application
Method: as §1, with “Example A: Evaluation of Fungicidal Activity: Leaf Blotch of Wheat (Zymoseptoria tritici; Bayer Code […]) Technical” for “Technical”, “plants.” for “plants. Example B: Evaluation of Fungicidal Activity: Wheat Brown Rust (Puccinia triticina; Bayer Code PUCCRT) Wheat plants (variety Yuma) were grown from seed in a greenhouse in 50% mineral soil/50% soil-less Metro mix until the first leaf was fully emerged, with 7-10 seedlings per pot. These plants were inoculated with an aqueous spore suspension of Puccinia triticina either prior to or after fungicide treatments. After inoculation the plants were kept in a dark dew room at 22° C. with 100% relative humidity overnight to permit spores to germinate and infect the leaf. The plants were then transferred to a greenhouse set at 24° C. for disease to develop. Fungicide formulation, application and disease assessment followed the procedures as described in the Example A.”

[3] = 24 h, 1 day protectant, read-out: PUCCRT disease control, 1DP (1 Day Protectant)
[4] = 72 h, 3 day curative, read-out: PUCCRT disease control, 3DC (3 Day Curative)
[5] = 24 h, 1 day protectant, read-out: SEPTTR disease control, 1DP (1 Day Protectant)
[6] = 72 h, 3 day curative, read-out: SEPTTR disease control, 3DC (3 Day Curative)

| SMILES | pest or weed control at 121.5 g/ha [1, 3] [%] | pest or weed control at 121.5 g/ha [1, 4] [%] | pest or weed control at 121.5 g/ha [2, 5] [%] | pest or weed control at 121.5 g/ha [2, 6] [%] | pest or weed control at 100 ppm [1, 3] [%] | pest or weed control at 100 ppm [1, 4] [%] | pest or weed control at 100 ppm [2, 5] [%] | pest or weed control at 100 ppm [2, 6] [%] |
| --- | --- | --- | --- | --- | --- | --- | --- | --- |
| COc1ccnc(C(=O)N[C@H]2CCOC[C@H](Oc3ccccc3)[C@@H](Oc3ccccc3)[C@H](C)OC2=O)c1OC(C)=O [Compound 47] | > 80 | > 80 | > 80 | > 80 |  |  |  |  |
| COc1ccnc(C(=O)N[C@H]2CCCC[C@H](Cc3ccccc3)[C@@H](OC(=O)C(C)C)[C@H](C)OC2=O)c1O [Compound 127] |  |  |  |  | > 80 | > 80 | > 80 | < 80 |
| COc1ccnc(C(=O)N[C@H]2CCCC[C@H](CC3CCCC3)[C@@H](OC)[C@H](C)OC2=O)c1O [Compound 125] |  |  |  |  | > 80 | < 80 | < 80 | < 80 |
| COc1ccc(C[C@H]2CCOC[C@H](NC(=O)c3nccc(OC)c3OC(=O)C(C)C)C(=O)O[C@@H](C)[C@@H]2Oc2ccccc2)cc1 [Compound 68] | > 80 |  | < 80 | < 80 |  |  |  |  |
| COc1ccnc(C(=O)N[C@H]2CCCC[C@H](CC3CCCC3)[C@@H](Oc3ccccc3)[C@H](C)OC2=O)c1OCOC(C)=O [Compound 50] | > 80 | > 80 | > 80 | < 80 |  |  |  |  |
| COc1ccnc(C(=O)N[C@H]2CCCC[C@H](OC3CCCC3)[C@@H](OC)[C@H](C)OC2=O)c1O [Compound 108] |  |  |  |  | < 80 | > 80 | < 80 | < 80 |
| CCOCC(=O)OCOc1c(OC)ccnc1C(=O)N[C@H]1CCCC[C@H](CC2CCCC2)[C@@H](Oc2ccccc2)[C@H](C)OC1=O [Compound 51, ((2-(((3S,8R,9R,10S)-8-(cyclopentylmethyl)-10-methyl-2-oxo-9-phenoxyoxecan-3-yl)carbamoyl)-4-methoxypyridin-3-yl)oxy)methyl 2-ethoxyacetate] | > 80 | < 80 | > 80 |  |  |  |  |  |
| COc1ccnc(C(=O)N[C@H]2COCCC[C@@H](OCC(C)C)[C@H](C)OC2=O)c1O [Compound 112] |  |  |  |  | < 80 | < 80 | < 80 | < 80 |
| COc1ccnc(C(=O)N[C@H]2CCCC[C@H](OCC(C)C)[C@@H](Oc3ccccc3)[C@H](C)OC2=O)c1OCOC(C)=O [Compound 13] | > 80 | > 80 | > 80 | > 80 | > 80 | > 80 | > 80 | > 80 |
| COc1ccnc(C(=O)N[C@H]2CCCC[C@H](Oc3ccccc3)[C@@H](OC3CCCC3)[C@H](C)OC2=O)c1OCOC(C)=O [Compound 36] | > 80 | > 80 | < 80 | < 80 |  |  |  |  |
| COc1ccc(C[C@H]2CCOC[C@H](NC(=O)c3nccc(OC)c3OC(C)=O)C(=O)O[C@@H](C)[C@@H]2Oc2ccccc2)cc1 [Compound 65] | > 80 | < 80 | > 80 | < 80 |  |  |  |  |
| COc1ccnc(C(=O)N[C@H]2CCCC[C@H](OC3CCCC3)[C@@H](OC)[C@H](C)OC2=O)c1OCOC(C)=O [Compound 35] | > 80 | < 80 |  |  |  |  |  |  |
| CCCCCO[C@H]1[C@H](C)OC(=O)[C@@H](NC(=O)c2nccc(OC)c2OCOC(C)=O)CCCC[C@@H]1OC(=O)c1ccccc1 [Compound 15] | > 80 | < 80 | > 80 | > 80 | > 80 | > 80 | > 80 | > 80 |
| COc1ccnc(C(=O)N[C@H]2CCCC[C@H](OC)[C@@H](OC)[C@H](C)OC2=O)c1OC(C)=O [Compound 27] | > 80 | > 80 | < 80 |  |  |  |  |  |
| CCCO[C@H]1CCCC[C@H](NC(=O)c2nccc(OC)c2O)C(=O)O[C@@H](C)[C@@H]1Oc1ccccc1 [Compound 100] |  |  |  |  | > 80 | > 80 | > 80 | > 80 |
| COc1ccnc(C(=O)N[C@H]2COCC[C@H](Cc3ccc(F)cc3)[C@@H](Oc3ccccc3)[C@H](C)OC2=O)c1OCOC(C)=O [Compound 72] | > 80 | > 80 | > 80 | > 80 |  |  |  |  |
| CCC[C@H]1CCCC[C@H](NC(=O)c2nccc(OC)c2O)C(=O)O[C@@H](C)[C@@H]1OC(=O)C(C)C [Compound 103] |  |  |  |  | > 80 | < 80 | < 80 |  |
| COc1ccnc(C(=O)N[C@H]2CCCC[C@H](OCC(C)C)[C@@H](OCC(C)C)[C@H](C)OC2=O)c1OCOC(C)=O [Compound 14] | > 80 | < 80 | > 80 | < 80 | > 80 | > 80 | > 80 | > 80 |
| COc1ccnc(C(=O)N[C@H]2CCCC[C@H](OC)[C@@H](OC)[C@H](C)OC2=O)c1O [Compound 99] |  |  |  |  | > 80 |  |  |  |
| CCC[C@H]1CCCC[C@H](NC(=O)c2nccc(OC)c2OCOC(C)=O)C(=O)O[C@@H](C)[C@@H]1OC(=O)C(C)C [Compound 31] | > 80 | < 80 | < 80 | < 80 |  |  |  |  |
| COc1ccnc(C(=O)N[C@H]2CCOC[C@H](OCC(C)C)[C@@H](Oc3ccccc3)[C@H](C)OC2=O)c1OCOC(C)=O [Compound 45] | > 80 | > 80 | > 80 | > 80 |  |  |  |  |
| COc1ccnc(C(=O)N[C@H]2COCC[C@H](Cc3ccc(F)cc3)[C@@H](OCC3CC3)[C@H](C)OC2=O)c1OCOC(C)=O [Compound 74] | > 80 | > 80 | > 80 | < 80 |  |  |  |  |
| COc1ccnc(C(=O)N[C@H]2CCOC[C@H](OC)[C@@H](Oc3ccccc3)[C@H](C)OC2=O)c1O [Compound 113] |  |  |  |  | > 80 | > 80 | > 80 | > 80 |
| COc1ccnc(C(=O)N[C@H]2CCOC[C@H](OCC(C)C)[C@@H](OCC(C)C)[C@H](C)OC2=O)c1OCOC(C)=O [Compound 43] | > 80 | < 80 |  |  |  |  |  |  |
